Experimental findings from patent US20190169620A1, “Treatment of HER2-Dependent Cancers by SORL1 Inhibition” (TURUN YLIOPISTO, priority 2017, published 2019) are described below.

Entries after “also recorded” stand apart in the source; their conditions may differ.

One experiment concerns HER2. As to the kind of experiment: Immunofluorescent imaging of HER2 localization. Format: cell-based. As to conditions: BT474, primaquine 24 h, 0.3 and 0.6 mM. The protocol: (§1) Cells were plated on ibidi 8-well dishes or in some cases in […] ibidi dishes. Cells were fixed with 4% paraformaldehyde (PFA) in phosphate buffer saline (PBS) for 10 min at room temperature. PFA was quenched by incubating with 50 mM NH4Cl for 15 min at room temperature. Cells were blocked and permeabilized with 30% horse serum in PBS +0.3% Triton X-100 15 min at room temperature. Primary antibodies were diluted in 30% horse serum and incubated over night at +4° C. HER2 staining was performed with Herceptin (Roche) or with mouse monoclonal antibody (ThermoScientific; MA5-14057) in dilution of 1:300, LAMP1 antibody (Santa Cruz; SC-20011 (H4A3)) was diluted 1:50, rabbit monoclonal SORLA antibody (CM Petersen Lab, Arhus University) in dilution of 1:300, goat anti-EEA-1 (Santa Cruz; sc-6415) 1:50, goat anti-VPS35 (Abcam; ab10099) 1:300, mouse anti-CD63 (Hybridoma Bank; H5C6) 1:300 and rabbit anti-TGN46 (Abcam; ab50595) 1:300. After primary antibody incubation, cells were washed three times with PBS for 5 min at room temperature and then secondary antibodies were diluted 1:300 in 30% horse serum. […]

For a further experiment, the system named is BT474 cells. As to the kind of experiment: Cell cycle analysis (propidium iodide, flow cytometry). As to conditions: BT474, 0.5 μM lapatinib for 24 hours; stated as the effect SORLA silencing mimics. Format: cell-based. The protocol: BT474 transfected with control siRNA and with two individual siRNA against SORLA (#3 and #4) and BT474 treated with DMSO or with 0.5 μM Lapatinib for 24 hours were trypsinized, spun down and suspended in ice cold PBS (1 ml). Cells were fixed with 70% EtOH (ice cold) by adding 3 ml of 70% EtOH in dropwise manner while gently vortexin the cells. Cells were then stored at +4° C. until propidium iodide (PI) staining was performed. PI (Sigma) staining was performed by preparing 25 μg/ml PI solution in PBS with RNAase A (Qiagen). Cells were washed twice with PBS. After that cells were suspended in PI solution and incubated 10 minutes on ice. Samples were protected from light and kept on ice until flow cytometry analysis. Samples were run with LSR II and cell cycle analysis was performed with FlowJo.

A further experiment deals with TFEB and LAMP1. The experiment can be described thus: Western blot analysis of TFEB and LAMP1 protein levels. Format: cell-based. As to conditions: SKBR3, lapatinib treatment (24 h). The protocol:
Protein extracts were sonicated (0.5 min ON/0.5 min OFF totally 5 min with full power) and protein levels were measured by Bio-Rad protein quantification kit. Sample buffer was added and samples were boiled for 5 min at 95° C. heat block. Proteins were separated on 4-20% gradient gel (Bio-Rad) and transferred into nitrocellulose membranes (Bio-Rad) by semi-dry turbo blot (Bio-Rad). Membranes were blocked with 5% milk powder in TBST for 1 hour at room temperature. Primary antibodies were diluted in blocking buffer (ThermoScientific) and PBS (1:1 ratio) mix and incubated over night at +4° C. Following primary antibodies were used: HER2 (Thermo Scientific, MA5-14057), SORLA (BD Transduction Lab, 612633), α-tubulin (Hybridoma Bank).
Background: Immunoblotting shows a protein as a band on a membrane.

Experiment [1] concerns LAMP1- and CD63 (LAMP3)-positive lysosomes. As to the kind of experiment: Immunofluorescent imaging of lysosome aggregation (LAMP1, CD63). Format: cell-based. As to conditions: Lapatinib 24 h, 0.5 mM. The protocol:
as §1

Another experiment deals with MDA-MB-361 cells. The experiment can be described thus: Proliferation assay (WST-8), MDA-MB-361. Format: cell-based. The following applies: MDA-MB-361, lapatinib treated. The protocol: Cells were plated on 96-well plate (3000 cells/well, 4 replicates per sample) in volume of 100 μl.
Transfection of siRNAs to silence SORLA or HER2 protein expression: Cells were seeded on 6-well plate day before the transfection (300 000-500 000 cells/well). On next day, transfection mix containing siRNA (20-40 nM of targeting SORLA, 40 nM of HER2 targeting siRNA and 20-40 nM scramble siRNA) and RNAiMAX transfection reagent (Manufacturer) in OptiMEM medium was prepared. The mix was allowed to stand for 15 min at room temperature before adding to the cells on 6 well plate. After 48 hours of transfection cells were used for experiments.
Background: Tetrazolium assays rely on reduction of a dye to a coloured formazan, in cell work by metabolically active cells.

Experiment [2] concerns 5637 bladder cancer cells. As to the kind of experiment: Colony formation assay of SORLA silenced 5637 treated with CADs. Format: cell-based. As to conditions: drug for 7 days combined with SORLA silencing. The protocol: Transient SORLA (with two individual siRNAs) or scramble silencing was performed for 5637 bladder cancer cells. After 48 hours of silencing, 20 000 cells per well were plated on colony formation assay on 12-well plate. […] DMSO was used as control. Cells were treated for 7 days and drugs including media was replenished between 3-4 days of culture. After 7 days, cells were stained with 0.2% Crystal Violet in 10% EtOH for 10 min RT. Cells were washed extensively with PBS and dried. Wells were scanned and confluency was measured by using Image J colony area plug-in.

Experiment [3] relates to HER2-amplified breast cancer cells.
Method: Transient SORLA (with two individual siRNAs) or scramble silencing was performed for 5637 bladder cancer cells. After 48 hours of silencing, 3000 cells per well were plated on 96-well plate. Cells were treated with increasing concentration of Ebastine and Loratadine for 48 hours. After 48 hours of treatment, WST-8 reagent (Sigma, 96992) was added 10 μl/well and absorbance 450 nm was measured by plate reader after 1-2 h of incubation at 37° C. with 5% CO2. Medium without cells was used as background and the A450 of background was subtracted from the samples. Relative viability was calculated by normalizing the A450 values of drug treated to DMSO treated cells. IC50 values were calculated by GraphPad using nonlinear regression to fit the data to the log(inhibitor) vs. response (variable slope) curve.

Regarding `COc1cc(NC(C)CCCN)c2ncccc2c1` (stereo not shown) [primaquine], the HER2 localization entry with HER2 is “accumulation of intracellular HER2”.
For the compound `CS(=O)(=O)CCNCc1ccc(-c2ccc3ncnc(Nc4ccc(OCc5cccc(F)c5)c(Cl)c4)c3c2)o1` [lapatinib], the cell cycle distribution entry in the experiment with BT474 cells is “increased accumulation of cells at G1/G0 and decreased number of cells in S phase”. The LAMP1 protein levels entry in the experiment with TFEB and LAMP1 is given as “similarly increased”. Also, the results for the lysosome aggregation entry in experiment [1] (BT474 (sensitive)) and in experiment [1] (MDA-MB-361 (resistant)) were “induced lysosome aggregation” and “not in the resistant MDA-MB-361 cells”, respectively. For the same compound, the “proliferation / drug sensitivity” value in the experiment with MDA-MB-361 cells is reported as “resistant to Lapatinib”.
`CCOC(=O)N1CCC(=C2c3ccc(Cl)cc3CCc3cccnc32)CC1` [Loratadine]: the “5637 bladder cancer colony growth” value in experiment [2] is “significant synergistic effects”.
As for `CC(C)(C)c1ccc(C(=O)CCCN2CCC(OC(c3ccccc3)c3ccccc3)CC2)cc1` [Ebastine], in experiment [2], the “5637 bladder cancer colony growth” value is recorded as “significant synergistic effects”. Moreover, the cell viability result in experiment [3] (Ebastine 48 hours in combination with SORLA silencing, irrespective of anti-HER2 therapy sensitivity) is recorded as “synergistic effect on cell viability; also recorded: significantly decreased cell viability”. Moreover, in experiment [3] (Ebastine combined with SORLA silencing), the “cell death in vitro” value is listed as “significantly increased cell death”.
